In the supplement of paper PMC10307832:

What was measured:
Experiment in all cases: relative viability (nuclei count vs DMSO), 5 days (fraction); higher = more cells survive
[1] = test system: NCI-H460
In short: (§1)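 Dosing by pin tool came one day after lung cancer cell lines were seeded in 1536-well plates, using either one drug or a fixed anchor-drug dose plus five library-drug doses (not always all listed) in √10 steps. After 5 days, nuclei were counted on 4× images. Relative viability is treated-well nuclei count divided by vehicle-well nuclei count, and values are medians of duplicate plates.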

[2] = test system: NCI-H1944
In short: as §1

[3] = test system: NCI-H1651
In short: as §1

[4] = test system: NCI-H520
In short: as §1

[5] = test system: BEN
In short: as §1

[6] = test system: NCI-H596
In short: as §1

[7] = test system: NCI-H838
In short: as §1

[8] = test system: NCI-H2085
In short: as §1

[9] = test system: NCI-H661
In short: as §1

[10] = test system: LOU-NH91
In short: as §1

[11] = test system: NCI-H2126
In short: as §1

[12] = test system: LCLC-103H
In short: as §1

[13] = test system: HARA
In short: as §1

[14] = test system: NCI-H1975
In short: as §1

[15] = test system: NCI-H647
In short: as §1

[16] = test system: SW 900
In short: as §1

[17] = test system: A-427
In short: as §1

[18] = test system: NCI-H1734
In short: as §1

[19] = test system: NCI-H727
In short: as §1

[20] = test system: CAL-12T
In short: as §1

[21] = test system: RERF-LC-KJ
In short: as §1

[22] = test system: NCI-H1666
In short: as §1

[23] = test system: ABC-1
In short: as §1

CN1CCN(CCOc2cc(OC3CCOCC3)c3c(Nc4c(Cl)ccc5c4OCO5)ncnc3c2)CC1 [Saracatinib] + N=C(N)NC(=N)NCCc1ccccc1 [Phenformin] (partner 250 µM)
relative viability ([1]; first compound 0.02 µM): 0.534 | relative viability ([1]; first compound 0.2 µM): 0.382 | relative viability ([1]; first compound 0.6325 µM): 0.491 | relative viability ([1]; first compound 2 µM): 0.435 | relative viability ([2]; first compound 0.02 µM): 0.227 | relative viability ([2]; first compound 0.6325 µM): 0.161 | relative viability ([2]; first compound 2 µM): 0.141 | relative viability ([3]; first compound 0.02 µM): 0.414 | relative viability ([3]; first compound 0.2 µM): 0.258 | relative viability ([3]; first compound 0.6325 µM): 0.388 | relative viability ([3]; first compound 2 µM): 0.3 | relative viability ([4]; first compound 0.02 µM): 0.687 | relative viability ([4]; first compound 0.6325 µM): 0.441 | relative viability ([4]; first compound 2 µM): 0.291 | relative viability ([5]; first compound 0.02 µM): 0.292 | relative viability ([5]; first compound 0.6325 µM): 0.253 | relative viability ([5]; first compound 2 µM): 0.209 | relative viability ([6]; first compound 0.02 µM): 0.845 | relative viability ([6]; first compound 0.2 µM): 0.625 | relative viability ([6]; first compound 0.6325 µM): 0.689 | relative viability ([6]; first compound 2 µM): 0.67 | relative viability ([7]; first compound 0.02 µM): 0.645 | relative viability ([7]; first compound 0.2 µM): 0.486 | relative viability ([7]; first compound 0.6325 µM): 0.49 | relative viability ([7]; first compound 2 µM): 0.379 | relative viability ([8]; first compound 0.2 µM): 0.694 | relative viability ([8]; first compound 0.6325 µM): 0.809 | relative viability ([8]; first compound 2 µM): 0.667 | relative viability ([9]; first compound 0.02 µM): 0.282 | relative viability ([9]; first compound 0.2 µM): 0.271 | relative viability ([9]; first compound 0.6325 µM): 0.233 | relative viability ([9]; first compound 2 µM): 0.236 | relative viability ([10]; first compound 0.02 µM): 0.648 | relative viability ([10]; first compound 0.2 µM): 0.47 | relative viability ([10]; first compound 0.6325 µM): 0.553 | relative viability ([10]; first compound 2 µM): 0.403 | relative viability ([11]; first compound 0.02 µM): 0.537 | relative viability ([11]; first compound 0.2 µM): 0.522 | relative viability ([11]; first compound 0.6325 µM): 0.524 | relative viability ([11]; first compound 2 µM): 0.473 | relative viability ([12]; first compound 0.02 µM): 0.337 | relative viability ([12]; first compound 0.2 µM): 0.354 | relative viability ([12]; first compound 0.6325 µM): 0.37 | relative viability ([12]; first compound 2 µM): 0.314 | relative viability ([13]; first compound 0.02 µM): 0.54 | relative viability ([13]; first compound 0.2 µM): 0.279 | relative viability ([13]; first compound 0.6325 µM): 0.496 | relative viability ([13]; first compound 2 µM): 0.24 | relative viability ([14]; first compound 0.02 µM): 0.422 | relative viability ([14]; first compound 0.2 µM): 0.348 | relative viability ([14]; first compound 0.6325 µM): 0.387 | relative viability ([14]; first compound 2 µM): 0.32 | relative viability ([15]; first compound 0.02 µM): 0.584 | relative viability ([15]; first compound 0.2 µM): 0.362 | relative viability ([15]; first compound 0.6325 µM): 0.5 | relative viability ([15]; first compound 2 µM): 0.308 | relative viability ([16]; first compound 0.02 µM): 0.756 | relative viability ([16]; first compound 0.2 µM): 0.36 | relative viability ([16]; first compound 0.6325 µM): 0.493 | relative viability ([16]; first compound 2 µM): 0.47 | relative viability ([17]; first compound 0.02 µM): 0.352 | relative viability ([17]; first compound 0.2 µM): 0.273 | relative viability ([17]; first compound 0.6325 µM): 0.281 | relative viability ([17]; first compound 2 µM): 0.285 | relative viability ([18]; first compound 0.02 µM): 0.375 | relative viability ([18]; first compound 0.6325 µM): 0.375 | relative viability ([18]; first compound 2 µM): 0.308 | relative viability ([19]; first compound 0.02 µM): 0.535 | relative viability ([19]; first compound 0.2 µM): 0.238 | relative viability ([19]; first compound 0.6325 µM): 0.465 | relative viability ([19]; first compound 2 µM): 0.316 | relative viability ([20]; first compound 0.02 µM): 0.608 | relative viability ([20]; first compound 0.2 µM): 0.639 | relative viability ([20]; first compound 0.6325 µM): 0.595 | relative viability ([20]; first compound 2 µM): 0.506 | relative viability ([21]; first compound 0.02 µM): 0.445 | relative viability ([21]; first compound 0.2 µM): 0.401 | relative viability ([21]; first compound 0.6325 µM): 0.313 | relative viability ([21]; first compound 2 µM): 0.361 | relative viability ([22]; first compound 0.02 µM): 0.562 | relative viability ([22]; first compound 0.2 µM): 0.566 | relative viability ([22]; first compound 0.6325 µM): 0.642 | relative viability ([22]; first compound 2 µM): 0.588 | relative viability ([23]; first compound 0.02 µM): 0.251 | relative viability ([23]; first compound 0.2 µM): 0.238 | relative viability ([23]; first compound 0.6325 µM): 0.231 | relative viability ([23]; first compound 2 µM): 0.215
